Assay results published in patent US10392422B2, “Macrocyclic broad spectrum antibiotics” (priority 2014, dated 2019).
Values after ≈ are worked out from the molar mass of the structure shown. Where two headings read alike, the source gives them in different places.

Columns and labels:
Experiment in all cases: MIC, broth micro-dilution technique (CLSI)
[1] = tested on: Escherichia coli MC4100 harboring the IMP4213; assay type: cell-based; conditions: 35° C., 22 hours; for MIC: Escherichia coli, 22 h
How it was run: (§1)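 CLSI broth microdilution in cation-adjusted Mueller Hinton broth with 0.002% v/v Tween-80. Compounds were serially 2-fold diluted over 10 concentrations from 64 μg/ml, or from 4 μg/mL in a modified protocol; inoculum at final OD600 0.0005, incubated 35° C for 22 hours.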

[2] = tested on: Methicillin Resistant Staphylococcus aureus strain USA 300 (NRS384); assay type: cell-based; conditions: for MIC: Staphylococcus aureus, 22 h, read-out: MIC (μg/mL) S. aureus
How it was run: as §1

[3] = tested on: MRSA COL (NRS100); assay type: cell-based, Staphylococcus aureus; conditions: for MIC: Staphylococcus aureus, 22 h, read-out: MIC (μg/mL) (COL)
How it was run: as §1

[4] = read-out: MIC (μg/mL) E. coli, Table 2 modified protocol: serial 2-fold dilutions starting from 4 μg/mL
[5] = Table 2 modified protocol: serial 2-fold dilutions starting from 4 μg/mL, 35° C., 22 hours
[6] = read-out: MIC (μg/mL) E. coli, Table 1 protocol: serial 2-fold dilutions starting from 64 μg/ml
[7] = Table 1 protocol: serial 2-fold dilutions starting from 64 μg/ml, 35° C., 22 hours

Compound	MIC [1, 6]	MIC [2, 7]	MIC [3, 7]	MIC [2]	MIC [3]	also measured
C[C@H](NC(=O)[C@@H]1Cc2ccc(O)c(c2)-c2cc(ccc2O)[C@H](N(C)C(=O)[C@H](CCCCN)NC(=O)c2ccc(-c3ccc(Cl)cc3)cc2)C(=O)N[C@@H](C)C(=O)N1)C(=O)CF [Compound 247]						MIC [1, 4]: > 4 µg/mL; MIC [2, 5]: 2 µg/mL (≈ 2.37 µM); MIC [3, 5]: 1 µg/mL (≈ 1.19 µM)
CNCCNCCOc1ccc2cc1-c1cc(ccc1O)C[C@@H](C(=O)N[C@@H](C)C(C)=O)NC(=O)[C@H](C)NC(=O)[C@H]2N(C)C(=O)[C@H](CCCCN)NC(=O)c1ccc(-c2ccc(Cl)cc2)cc1 [Compound 204]	8 µg/mL (≈ 8.64 µM)	11 µg/mL (≈ 11.9 µM)	1 µg/mL (≈ 1.08 µM)			
CCCCc1ccc(-c2ccc(C(=O)N[C@@H](CCCCN)C(=O)N(C)[C@@H]3C(=O)N[C@@H](C)C(=O)N[C@H](C(=O)N[C@@H](C)C(C)=O)Cc4ccc(OCCN)c(c4)-c4cc3ccc4OCCN)cc2)cc1 [Compound 272]						MIC [1, 4]: 0.25 µg/mL (≈ 0.268 µM); MIC [2, 5]: 0.13 µg/mL (≈ 0.139 µM); MIC [3, 5]: 0.063 µg/mL (≈ 0.0675 µM)
C[C@@H]1NC(=O)[C@@H](N(C)C(=O)[C@H](CCCCN)NC(=O)c2ccc(-c3ccc(Cl)cc3)cc2)c2ccc(O)c(c2)-c2cc(ccc2O)C[C@@H](C(=O)N[C@@H](C)C(=O)N(C)[C@H](C)C(N)=O)NC1=O [Compound 197]	32 µg/mL (≈ 35.1 µM)	20 µg/mL (≈ 21.9 µM)	3.9 µg/mL (≈ 4.28 µM)			
C[C@@H]1NC(=O)[C@@H](N(C)C(=O)[C@H](CCCCN)NC(=O)c2ccc(-c3ccc(Cl)cc3)cc2)c2ccc(O)c(c2)-c2cc(ccc2O)C[C@@H](C(=O)N[C@@H](CO)C(=O)N(C)[C@@H](C)C(N)=O)NC1=O [Compound 199]	64 µg/mL (≈ 69 µM)	10 µg/mL (≈ 10.8 µM)	2 µg/mL (≈ 2.16 µM)			
C[C@@H]1NC(=O)[C@@H](N(C)C(=O)[C@H](CCCCN)NC(=O)c2ccc(-c3ccc(Cl)cc3)cc2)c2ccc(O)c(c2)-c2cc(ccc2O)C[C@@H](C(=O)N[C@@H](C)C(=O)N(C)[C@@H](CC(=O)O)C(N)=O)NC1=O [Compound 158]	64 µg/mL (≈ 67 µM)			23 µg/mL (≈ 24.1 µM)	8 µg/mL (≈ 8.37 µM)	
CCCCCCCCc1ccc(C(=O)N[C@@H](CO)C(=O)N(C)[C@@H]2C(=O)N[C@@H](C)C(=O)N[C@H](C(=O)O)Cc3ccc(OCCN)c(c3)-c3cc2ccc3OCCN)c(C)c1 [Compound 309]				0.5 µg/mL (≈ 0.612 µM)	0.25 µg/mL (≈ 0.306 µM)	MIC [1, 4]: 0.031 µg/mL (≈ 0.0379 µM)
CCCCCCCCCC(=O)NCC(=O)N(C)[C@@H]1C(=O)N[C@@H](C)C(=O)N[C@H](C(=O)N[C@@H](C)C(C)=O)Cc2ccc(OCCN)c(c2)-c2cc1ccc2OCCN.O=CO [Compound 267]						MIC (μg/mL) E. coli ([1]; Table 2 modified protocol: serial 2-fold dilutions starting from 4 μg/mL): >4 µg/mL; MIC (μg/mL) S. aureus [2, 5]: 1.5 µg/mL; MIC (μg/mL) (COL) [3, 5]: 0.5 µg/mL
CCCCc1ccc(-c2ccc(C(=O)N[C@@H](CCCN)C(=O)N(C)[C@@H]3C(=O)N[C@@H](C)C(=O)N[C@H](C(=O)O)Cc4ccc(OCCN)c(c4)-c4cc3ccc4OCCN)cc2)cc1 [Compound 295]	0.063 µg/mL (≈ 0.0741 µM)			0.19 µg/mL (≈ 0.224 µM)	0.063 µg/mL (≈ 0.0741 µM)	
C[C@H](NC(=O)CCC(=O)[C@H](C)NC(=O)[C@@H]1Cc2ccc(O)c(c2)-c2cc(ccc2O)[C@H](N(C)C(=O)[C@H](CCCCN)NC(=O)c2ccc(-c3ccc(Cl)cc3)cc2)C(=O)N[C@@H](C)C(=O)N1)C(=O)O [Compound 147]	> 64 µg/mL			> 64 µg/mL	> 64 µg/mL	
CCCCCCCCCCNCCS(=O)(=O)N[C@@H](CCCCN)C(=O)N(C)[C@@H]1C(=O)N[C@@H](C)C(=O)N[C@H](C(=O)N[C@@H](C)C(C)=O)Cc2ccc(O)c(c2)-c2cc1ccc2OCCN [Compound 216]	64 µg/mL (≈ 71 µM)	0.13 µg/mL (≈ 0.144 µM)	0.063 µg/mL (≈ 0.0699 µM)			
C[C@@H]1NC(=O)[C@@H](N(C)C(=O)[C@H](CCCCN)NC(=O)c2ccc(-c3ccccc3Cl)cc2)c2ccc(OCCN)c(c2)-c2cc(ccc2OCCN)C[C@@H](C(=O)O)NC1=O [Compound 283]				4 µg/mL (≈ 4.75 µM)	1.5 µg/mL (≈ 1.78 µM)	MIC [1, 4]: 1 µg/mL (≈ 1.19 µM)
CCCCCCCCCCCCCC(=O)N(C)[C@@H]1C(=O)N[C@@H](C)C(=O)N[C@H](C(=O)N[C@@H](C)B2O[C@@H]3C[C@@H]4C[C@@H](C4(C)C)[C@]3(C)O2)Cc2ccc(OCCN)c(c2)-c2cc1ccc2OCCN [Compound 315]	1 µg/mL (≈ 1.09 µM)			1 µg/mL (≈ 1.09 µM)	0.5 µg/mL (≈ 0.546 µM)	
C[C@@H]1NC(=O)[C@@H](N(C)C(=O)[C@H](CCCCN)NC(=O)c2ccc(-c3ccc(Cl)cc3)cc2)c2ccc(O)c(c2)-c2cc(ccc2O)C[C@@H](C(=O)N[C@@H](C)C(=O)N(C)CC(N)=O)NC1=O [Compound 182]	64 µg/mL (≈ 71.3 µM)	10 µg/mL (≈ 11.1 µM)	2 µg/mL (≈ 2.23 µM)			
C[C@H](NC(=O)[C@@H]1CCCN1C(=O)[C@H](C)NC(=O)[C@@H]1Cc2ccc(O)c(c2)-c2cc(ccc2O)[C@H](N(C)C(=O)[C@H](CCCCN)NC(=O)c2ccc(-c3ccc(Cl)cc3)cc2)C(=O)N[C@@H](C)C(=O)N1)C(N)=O [Compound 179]	64 µg/mL (≈ 64.4 µM)			32 µg/mL (≈ 32.2 µM)	16 µg/mL (≈ 16.1 µM)	
CCCCCCCCCCS(=O)(=O)N[C@@H](CCCCN)C(=O)N(C)[C@@H]1C(=O)N[C@@H](C)C(=O)N[C@H](C(=O)N[C@@H](C)C(=O)N2CCC[C@H]2C(N)=O)Cc2ccc(O)c(c2)-c2cc1ccc2O [Compound 224]	64 µg/mL (≈ 70.1 µM)	16 µg/mL (≈ 17.5 µM)	0.13 µg/mL (≈ 0.142 µM)			
CCCCCCCCCC(=O)N[C@@H](CCN)C(=O)N(C)[C@@H]1C(=O)N[C@@H](C)C(=O)N[C@H](C(=O)O)Cc2ccc(OCCN)c(c2)-c2cc1ccc2OCCN [Compound 306]				3 µg/mL (≈ 3.98 µM)	1 µg/mL (≈ 1.33 µM)	MIC [1, 4]: 0.25 µg/mL (≈ 0.332 µM)
CCCCCCCCCCNCCC(=O)N[C@@H](CCCCN)C(=O)N(C)[C@@H]1C(=O)N[C@@H](C)C(=O)N[C@H](C(=O)N[C@@H](C)C(=O)COC(C)=O)Cc2ccc(O)c(c2)-c2cc1ccc2OCCN [Compound 116]	13 µg/mL (≈ 14.1 µM)			0.35 µg/mL (≈ 0.379 µM)	0.063 µg/mL (≈ 0.0682 µM)	
CC(=O)[C@H](C)NC(=O)[C@@H]1Cc2ccc(OCCN)c(c2)-c2cc(ccc2OCCN)[C@H](N(C)C(=O)[C@H](CCCCN)NC(=O)c2ccc(-c3ccc(Cl)cc3)cc2)C(=O)N[C@@H](C)C(=O)N1 [Compound 209]	4 µg/mL (≈ 4.39 µM)	0.5 µg/mL (≈ 0.549 µM)	0.13 µg/mL (≈ 0.143 µM)			
C[C@@H]1NC(=O)[C@@H](N(C)C(=O)[C@H](CCCCN)NC(=O)c2ccc(-c3ccc(-c4ccccc4)cc3)cc2)c2ccc(OCCN)c(c2)-c2cc(ccc2OCCN)C[C@@H](C(=O)O)NC1=O [Compound 287]				0.25 µg/mL (≈ 0.283 µM)	0.094 µg/mL (≈ 0.106 µM)	MIC [1, 4]: 0.047 µg/mL (≈ 0.0532 µM)
CCCCCCCCCCNCCC(=O)N[C@@H](CCCCN)C(=O)N(C)[C@@H]1C(=O)N[C@@H](C)C(=O)N[C@H](C(=O)N[C@@H](C)C(C)=O)Cc2ccc(O)c(c2)-c2cc1ccc2O [Compound 114]	32 µg/mL (≈ 38.9 µM)			> 64 µg/mL	1 µg/mL (≈ 1.22 µM)	
CC(=O)[C@H](C)NC(=O)[C@@H]1Cc2ccc(O)c(c2)-c2cc(ccc2OCCNCC(=O)O)[C@H](N(C)C(=O)[C@H](CCCCN)NC(=O)c2ccc(-c3ccc(Cl)cc3)cc2)C(=O)N[C@@H](C)C(=O)N1 [Compound 205]	32 µg/mL (≈ 34.5 µM)	32 µg/mL (≈ 34.5 µM)	6 µg/mL (≈ 6.48 µM)			
CCCCCCCCCCCCCC(=O)N[C@@H](CCCCN)C(=O)N(C)[C@@H]1C(=O)N[C@@H](C)C(=O)N[C@H](C(=O)O)Cc2ccc(OCCN)c(c2)-c2cc1ccc2OCCN [Compound 293]	0.063 µg/mL (≈ 0.0752 µM)			0.063 µg/mL (≈ 0.0752 µM)	0.063 µg/mL (≈ 0.0752 µM)	
C[C@@H]1NC(=O)[C@@H](N(C)C(=O)[C@H](CCCCN)NS(=O)(=O)c2ccc(-c3ccc(Cl)cc3)cc2)c2ccc(O)c(c2)-c2cc(ccc2O)C[C@@H](C(=O)N[C@@H](C)C(=O)N2CCC[C@H]2C(N)=O)NC1=O [Compound 225]	> 64 µg/mL	23 µg/mL (≈ 24 µM)	6 µg/mL (≈ 6.25 µM)			
C[C@@H]1NC(=O)[C@@H](N(C)C(=O)[C@H](CCCCN)NC(=O)c2ccc(-c3ccc(Cl)cc3)cc2)c2ccc(O)c(c2)-c2cc(ccc2O)C[C@@H](C(=O)N[C@@H](C)C(=O)C(=O)Nc2ccn[nH]2)NC1=O [Compound 227]	> 64 µg/mL	12 µg/mL (≈ 13 µM)	2 µg/mL (≈ 2.17 µM)			
